The text below walks through data of US7196110B2, “N-substituted tricyclic 3-aminopyrazoles as inhibitors for the treatment of cell proliferative disorders” (Janssen Phamaceutica N.V., priority 2002, dated 2007).

Test [1] has as its target T1, PDGF-receptor beta enzyme comprising the tyrosine kinase domain (Homo sapiens, UniProt P09619).
T1 construct: from amino acid 545 to 1106 of GenBank Access NO: AAA36427
Description: Inhibition of PDGF-receptor kinase activity (cell-free, PLC1 peptide, 33P Flashplate). Type of test: biochemical. Particulars: PDGF-R kinase activity; for inhibition at 10 µM: compound at 10 uM, read-out: Percent Inhibition @ 10 uM; for pIC50: read-out: IC50. The method, boiled down: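 The IC50 is the inhibitor level halving kinase activity relative to inhibitor-free wells, measured as 33P captured on a streptavidin-bound biotin-PLC1 peptide. The reaction ran 60 min at 30 °C in pH 8 Tris buffer with 1 mM DTT, 5 μM ATP and the 545–1106 kinase-domain enzyme.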

Test [2] deals with c-Abl kinase (Abelson murine leukemia virus, UniProt P00521). Description: Inhibition of c-Abl kinase activity (cell-free, Abl peptide substrate, 33P Flashplate). Type of test: biochemical. Particulars: IC50 for the c-Abl kinase activity. On the procedure:
The inhibitory activity of compounds within the scope of the invention on c-Abl kinase activity was tested according to the following procedure.
• 1. 10× Kinase Buffer [500 mM Tris-HCl pH=8, 100 mM MgCl2, 1 mM Na3VO4] • 2. 10 mM DTT [final concentration 1 mM] • 3. 10 mM ATP [final concentration 5 μM] (Gibco, Cat No:18330-019, Carlsbad, Calif.) • 4. ^33P-γ-ATP [NEG-602H; 2000–3000 Ci/mmol], 2 μCuries per well at 10 μCi/μl (0.2 μl/well) • 5. Abl enzyme (New England Biolabs, Cat No. P6050L, Beverly, Mass.) at 100 Units/μl use 10 Units/well (0.1 μl/well) • 6. Enzyme Dilution Buffer [50 mM Tris-HCl pH=8.0, 0.1% BSA] • 7. Wash/Stop Buffer [PBS+100 mM EDTA] • 8. NEN Streptavidin Flashplates (New England Nuclear, Cat No. SMP-103, Boston, Mass.). • 9. Abl Peptide Substrate (Biotin-[…]-amide) at 1 mM in 50 mM Tris-HCL pH=8.0. (Use at 1.0 μM). Procedure
Reagents were first mixed according to the following regimen:
The above reaction mixture was dispensed into each well of a Flashplate at 70 μl/well. To test the effect of a compound on Abl kinase activity, the test compound either in a fixed concentration or in serially diluted concentrations in 100% DMSO was added to appropriate wells at 1 μl/well.
Enzyme Abl was diluted in enzyme dilution buffer as following:
The kinase reaction was started by adding 30 μl of diluted Abl enzyme solution to each well on the Flashplate containing hot ATP (2 μCi/well) and Abl peptide substrate (at 1 μM final conc.), except wells of column 12 rows E and F, which were used to calculate the plate background. The Flashplate was swirled to mix and was incubated at 30° C. for 60 minutes. Then, the reaction mixture was discarded and the Flashplate was washed 3 times each with 200 μL Wash/Stop Buffer. Subsequently, each well on the Flashplate was filled with 200 μl of Wash/Stop buffer. The amount of ^33P retained in each well was measured using a Packard TopCount after the plate was sealed with a transparent plate sealer.
In order to test the potency of inhibition of present compounds, an IC50 for an individual compound was measured using the above procedure. As used herein, the IC50 for c-Abl kinase activity refers to the concentration of an inhibitor at which the activity of c-Abl kinase is reduced by one-half as compared with reactions containing no inhibitor.

Structures are written as SMILES. pIC50: −log10 of the molar value.

T1 sequence (P09619 545-1106): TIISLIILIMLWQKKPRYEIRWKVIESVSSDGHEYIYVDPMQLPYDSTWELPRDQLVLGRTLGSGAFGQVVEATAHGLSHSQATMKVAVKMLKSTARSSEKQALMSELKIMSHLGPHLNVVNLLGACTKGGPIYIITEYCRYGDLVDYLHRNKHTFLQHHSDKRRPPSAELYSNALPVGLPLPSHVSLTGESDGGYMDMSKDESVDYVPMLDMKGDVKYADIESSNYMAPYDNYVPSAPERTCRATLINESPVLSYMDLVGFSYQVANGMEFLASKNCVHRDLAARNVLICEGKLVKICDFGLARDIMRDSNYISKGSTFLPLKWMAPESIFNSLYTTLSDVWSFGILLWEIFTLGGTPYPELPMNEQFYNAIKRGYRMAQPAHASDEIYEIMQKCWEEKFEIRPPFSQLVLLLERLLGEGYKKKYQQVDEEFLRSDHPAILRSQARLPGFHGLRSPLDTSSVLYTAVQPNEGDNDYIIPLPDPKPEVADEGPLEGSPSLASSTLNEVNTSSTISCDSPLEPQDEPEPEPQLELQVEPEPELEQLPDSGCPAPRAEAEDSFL
Sequence of c-Abl kinase (P00521 115-385): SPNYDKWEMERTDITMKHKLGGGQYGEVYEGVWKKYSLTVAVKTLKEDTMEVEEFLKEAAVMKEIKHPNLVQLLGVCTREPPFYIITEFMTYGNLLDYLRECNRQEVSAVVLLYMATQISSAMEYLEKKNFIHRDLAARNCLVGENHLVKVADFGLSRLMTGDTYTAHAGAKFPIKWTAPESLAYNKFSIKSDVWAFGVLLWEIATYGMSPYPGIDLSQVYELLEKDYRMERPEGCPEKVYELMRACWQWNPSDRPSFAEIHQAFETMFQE

`Cc1ccc2c(c1)-c1n[nH]c(Nc3cccc(F)c3)c1C2` [Compound 182, (3-Fluoro-phenyl)-(7-methyl-2,4-dihydro-indeno[1,2-c]pyrazol-3-yl)-amine]: in test [1], the inhibition at 10 µM amounted to 107% and the negative logarithm of the IC50 (pIC50) is 8.30. Besides, in test [2], the pIC50 was 7.03.
On the same counts, the results for `COc1cccc(Nc2[nH]nc3c2Cc2cc(Cl)ccc2-3)c1` [Compound 190, (6-Chloro-2,4-dihydro-indeno[1,2-c]pyrazol-3-yl)-(3-methoxy-phenyl)-amine] are 80%, 7.40 and 7.16.
On the same counts, the results for `COc1ccc2c(c1)-c1n[nH]c(Nc3cccc(F)c3)c1C2` [Compound 172, (3-Fluoro-phenyl)-(7-methoxy-2,4-dihydro-indeno[1,2-c]pyrazol-3-yl)-amine] are 55%, 7.88 and 7.08.
Consider `COc1cc2c(cc1OCCCO)Cc1c-2n[nH]c1Nc1ccc(F)c(Cl)c1` [Compound 267, 3-[3-(3-Choloro-4-fluoro-phenylamino)-7-methoxy-2,4-dihydro-indeno[1,2-c]pyrazol-6-yloxy]-propan-1-ol], for which the inhibition at 10 µM in test [1] was 93.5%. Further, the pIC50 was 7.98 in test [1] and 6.49 in test [2].
On the same counts, the results for `COc1cccc(Nc2[nH]nc3c2Cc2cc(OCCCO)c(OCCCO)cc2-3)c1` [Compound 400, 3-[7-(3-Hydroxy-propoxy)-3-(3-methoxy-phenylamino)-2,4-dihydro-indeno[1,2-c]pyrazol-6-yloxy]-propan-1-ol] are 98.5%, 8.53 and 8.30.
On to `COc1cc2c(cc1OC)-c1n[nH]c(Nc3cccc(SC)c3)c1C2` [Compound 208, (6,7-Dimethoxy-2,4-dihydro-indeno[1,2-c]pyrazol-3-yl)-(3-methylsulfanyl-phenyl)-amine], for which, in test [1], the inhibition at 10 µM worked out at 82% and the pIC50 is 8.52. The pIC50 in test [2] is 8.05.
On the same counts, the results for `COc1cc2c(cc1OCC(O)CN1CCCC1)Cc1c-2n[nH]c1NCc1c(F)cccc1F` (stereo not drawn) [Compound 391, 1-[3-(2,6-Difluoro-benzylamino)-7-methoxy-2,4-dihydro-indeno[1,2-c]pyrazol-6-yloxy]-3-pyrrolidin-1-yl-propan-2-ol] are 99%, 8.17 and 7.85.
On the same counts, the results for `COc1cccc(Nc2[nH]nc3c2Cc2cc(N)ccc2-3)c1` [Compound 118, N3-(3-Methoxy-phenyl)-2,4-dihydro-indeno[1,2-c]pyrazole-3,6-diamine] are 74%, 7.67 and 6.37.
On the same counts, the results for `Fc1cccc(Nc2[nH]nc3c2Cc2ccc(F)cc2-3)c1` [Compound 334, (7-Fluoro-2,4-dihydro-indeno[1,2-c]pyrazol-3-yl)-(3-fluoro-phenyl)-amine] are 99.5%, 8.06 and 5.48.
With `COCCCOc1cc2c(cc1OCCCOC)-c1n[nH]c(Nc3ccc(F)c(Cl)c3)c1C2` [Compound 287, [6,7-Bis-(3-methoxy-propoxy)-2,4-dihydro-indeno[1,2-c]pyrazol-3-yl]-(3-Chloro-4-fluoro-phenyl)-amine], the inhibition at 10 µM in test [1] worked out at 92.5%. The results for the pIC50 in test [1] and in test [2] were 7.58 and 5.46, respectively.
On the same counts, the results for `CCOc1cccc(Nc2[nH]nc3c2Cc2cc(OC)c(OC)cc2-3)c1` [Compound 374, (6,7-Dimethoxy-2,4-dihydro-indeno[1,2-c]pyrazol-3-yl)-(3-ethoxy-phenyl)-amine] are 100%, 7.85 and 7.29.
With `CCOc1cc2c(cc1OCC(O)CN1CCCC1)-c1n[nH]c(Nc3cccc(F)c3)c1C2` (stereo not drawn) [Compound 460, 1-[6-Ethoxy-3-(3-fluoro-phenylamino)-2,4-dihydro-indeno[1,2-c]pyrazol-7-yloxy]-3-pyrrolidin-1-yl-propan-2-ol], the inhibition at 10 µM in test [1] was 97.5%. The pIC50 was 8.37 in test [1] and 8.40 in test [2].
On the same counts, the results for `COc1cccc(Nc2[nH]nc3c2Cc2cc(OCC(O)CO)c(OC)cc2-3)c1` (stereo not drawn) [Compound 260, 3-[7-Methoxy-3-(3-methoxy-phenylamino)-2,4-dihydro-indeno[1,2-c]pyrazol-6-yloxy]-propane-1,2-diol] are 91%, 8.82 and 7.89.
With `OCCCOc1cc2c(cc1OCCCO)-c1n[nH]c(Nc3cccc(F)c3)c1C2` [Compound 398, 3-[3-(3-Fluoro-phenylamino)-6-(3-hydroxy-propoxy)-2,4-dihydro-indeno[1,2-c]pyrazol-7-yloxy]-propan-1-ol], the inhibition at 10 µM in test [1] worked out at 96%. Also, the results for the pIC50 in test [1] and in test [2] were 8.17 and 8.00, respectively.
Regarding `OCC(O)COc1cccc2c1Cc1c-2n[nH]c1Nc1cccc(Br)c1` (stereo not drawn) [Compound 468, 3-[3-(3-Bromo-phenylamino)-2,4-dihydro-indeno[1,2-c]pyrazol-5-yloxy]-propane-1,2-diol], in test [1], the inhibition at 10 µM is 95.5% and the pIC50 was 7.32. The pIC50 in test [2] is 6.22.
On the same counts, the results for `COCCCOc1ccc2c(c1)Cc1c-2n[nH]c1Nc1ccccc1` [Compound 140, [6-(3-Methoxy-propoxy)-2,4-dihydro-indeno[1,2-c]pyrazol-3-yl]-phenyl-amine] are 56.5%, 7.86 and 5.85.
On the same counts, the results for `COc1cc2c(cc1OC)C(C)c1c-2n[nH]c1Nc1ccccc1` (stereo not drawn) [Compound 247, (6,7-Dimethoxy-4-methyl-2,4-dihydro-indeno[1,2-c]pyrazol-3-yl)-phenyl-amine] are 96%, 7.15 and 7.48.
On the same counts, the results for `COc1cccc(Nc2[nH]nc3c2Cc2cc(Br)c(OC)cc2-3)c1` [Compound 370, (6-Bromo-7-methoxy-2,4-dihydro-indeno[1,2-c]pyrazol-3-yl)-(3-methoxy-phenyl)-amine] are 94%, 7.91 and 8.22.
For the compound `COc1cc2c(cc1OC)-c1n[nH]c(Nc3cccc(CO)c3)c1C2` [Compound 36, [3-(6,7-Dimethoxy-2,4-dihydro-indeno[1,2-c]pyrazol-3-ylamino)-phenyl]-methanol], in test [1], the inhibition at 10 µM was determined as 85% and the pIC50 was 7.48. The pIC50 in test [2] is 7.19.
On the same counts, the results for `COc1cc2c(cc1OCCCO)Cc1c-2n[nH]c1Nc1cccc(Cl)c1` [Compound 268, 3-[3-(3-Chloro-phenylamino)-7-methoxy-2,4-dihydro-indeno[1,2-c]pyrazol-6-yloxy]-propan-1-ol] are 84%, 8.95 and 7.70.
On the same counts, the results for `CCOc1cccc(Nc2[nH]nc3c2Cc2cc(OCC(O)CO)c(OC)cc2-3)c1` (stereo not drawn) [Compound 379, 3-[3-(3-Ethoxy-phenylamino)-7-methoxy-2,4-dihydro-indeno[1,2-c]pyrazol-6-yloxy]-propane-1,2-diol] are 100%, 8.09 and 7.85.
On the same counts, the results for `CCCC(=O)OCn1nc(Nc2cccc(F)c2)c2c1-c1cc(OC)c(OC)cc1C2` [Compound 490, Butyric acid 3-(3-fluoro-phenylamino)-6,7-dimethoxy-4H-indeno[1,2-c]pyrazol-1-ylmethyl ester] are 96%, 7.55 and 7.42.
Regarding `COc1ccc(OC)c(Nc2[nH]nc3c2Cc2ccccc2-3)c1` [Compound 341, (2,4-Dihydro-indeno[1,2-c]pyrazol-3-yl)-(2,5-dimethoxy-phenyl)-amine], in test [1], the inhibition at 10 µM is 92.5% and the pIC50 is 7.39. In addition, the pIC50 in test [2] is 6.46.

The inhibition is the drop in the measured response relative to a control, in per cent. In general, pIC50 refers to the IC50 on a negative log10 scale, so that one unit is a factor of ten.
